Measured values: patent publication US5744499A, “Apoptosis-modulating factors influencing the intracellular concentration of methional/malondialdehyde” (Centre International de Recherches Dermatologiques Galderma, priority 1994, dated 1998)

Experiments:
HeLa cells = experiment: Effect of metabolites on the growth of HeLa cells; type: cell-based; settings: Homo sapiens, 72 h, three days at 37° C., estimated by protein content, average of 3 or 4 experiments, read-out: IC50 (concentration required to inhibit cell growth by 50%)
Experimental: HeLa cells (0.5×10^6 per Petri dish) were cultured in 3 ml of a minimum essential Eagle medium containing 10% by weight dialyzed fetal calf serum. After four hours, methional (10 μM-1 mM), methionol (10 μM-20 mM), methylthiopropionic acid (MTPA) (1 μM-20 mM), L-methionine (1 μM-20 mM) or 4-methylthio-2-oxobutanoic acid (MTOB) (1 μM-20 mM) were added to each of the three dishes. After three days at 37° C., the cells were washed twice in a buffered, phosphatized saline medium having a pH of 7.5 (PBS medium) and collected in the same type of buffer.
Cell growth was assessed by measuring protein content (see technique described in O. H. Lowry, N. J. Rosebrouh, A. L. Farr, and R. J. Randall, J. Biol. Chem., 193, 265-275 (1951)) or the DNA content in the lysate using a bisbenzimide trihydrochloride solution (Hoechst 33258) (see W. D. Jarvis, R. N. Kolesnick, F. A. Fornari, R. S. Traylor, D. A. Gewirtz, and S. Grant, Proc. Natl. Acad. Sci. USA, 91, 73-77 (1994)), or by determining […] using 3-(4,5-dimethylthiazol-2-yl)-2,5-diphenyl-tetrazolium bromide (MTT) (see T. Mosmann, J. of Immunology, Methods, 65, 55-63 (1983)).
Each value of is the average of 3 or 4 experiments as estimated by protein content.
IC50 represents the concentration of compound required to inhibit cell growth by 50%.

BAF3 cells [1] = experiment: DNA fragmentation in BAF3 cells, agarose gel electrophoresis; type: cell-based, mouse; settings: 200-800 μM, medium with IL3, 8 hours
Experimental: K. L. Collins, J. Marvel, […] A. Lopez-[…]. Exp. Med., 176, 1043-1051 (1992)]. […] After 8 hours of contact, the cells were washed three times in a phosphatized buffered saline medium, pH=7.5 (PBS medium). […] The supernatants were decanted and analyzed as indicated below. For purposes of comparison, the same cultures were grown in a medium, either with IL3 (+IL3) or without IL3 (-IL3). The DNA fragments obtained were analyzed qualitatively using the method described, in particular, in W. D. Jarvis, […], and S. Grant, Proc. Natl. Acad. Sci. USA, 91, 73-77 (1994). The supernatants were treated with ribonuclease A (20 μg/ml) for 1 hour at 37° C., and with the proteinase R (100 μg/ml). The DNA was purified using phenol extraction and precipitated with ethanol. […] After electrophoresis (60V, 3 hours), the gels were stained with ethydium bromide.

BAF3 cells [2] = experiment: DNA fragmentation in BAF3 cells, spectrofluorometric analysis (Hoechst 33258); type: cell-based, mouse
Experimental: 3×10^6 BAF3 cells were grown in 6 ml of a culture medium containing IL3 in Petri dishes in the presence of different concentrations (200-800 μM) of methional or […], a substrate of the aldehyde dehydogenase. After 8 hours of contact, the cells were washed three times in a phosphatized buffered saline medium, pH=7.5 (PBS medium). These cells were lysed in 2 ml 0.1% Triton X-100, 20 mM EDTA (ethylenediaminetetraacetic acid), 5 mM Tris pH 8, and then centrifuged at 30,000 g at 4° C. for 30 minutes. The supernatants were decanted and analyzed as indicated below.
For purposes of comparison, the same cultures were grown in a medium, either with IL3 (+IL3) or without IL3 (-IL3).
Spectrofluorometric analysis was carried out to measure the […] of DNA fragments obtained (<3 kilobases). 1 ml of a solution of bisbenzimide trihydrochloride (Hoechst 33258) (1 μg/ml) in 3 mM sodium chloride, 1 mMd4EDTA, 10 mM Tris, pH=8, was added to 2 ml supernatant. The solutions obtained were analyzed by fluorometry (excitation λ=365 nm, emission λ=460 nm). The quantities of DNA were calculated in relation to highly-purified DNA (0.1 to 1 μh in 2 ml lysis buffer) treated as indicated above and expressed in 10^-9 g DNA collected from 3×10^6 cells.

[3] = system: murine B16 Fl melanoma cells; experiment: Survival of mice grafted with B16 melanoma cells; type: in vivo, mouse; settings: Table 5; three mice; daily injection for 15 days; BCNU 0.1 mg/kg, Compound A 25 mg/kg, Methional 25 mg/kg; control 20.5
Experimental: At t=0 day, 10^5 murine B16 Fl melanoma cells were injected into B6D2Fl mice (from the IFFA CREDO Company, France).
Table 5 reports the results corresponding to averages of the results obtained on three treated mice.
For the regimens containing multiple compounds, the quantities of each of the compounds used were identical to those of the regimens using the compounds by themselves.
Survival time was recorded beginning at t=0 day, as indicated above.
BCNU corresponds to N,N-Bis(2-chloroethyl)-N-nitrosourea. Compound A corresponds to the compound having formula (9), wherein X is a --OH radical.
Between the two regimens, the latter (to which methional was added) accounted for one-third of the mice surviving more than 60 days. The "average survival time" is the mean of the number of mice dying over the course of the experiment, i.e., within 60 days.
The procedure of the previous example was repeated, but the regimens and numbers of mice treated varied.
With respect to this latter regiment, the quantities corresponded to the quantities of compounds used alone. The percentage of long-term survivors corresponded to the percentage of mice which survived beyond 60 days.

BAF3-bO cells = experiment: Induction of DNA fragmentation by methional in BAF3-bO cells ([3H]-thymidine); type: cell-based, mouse; settings: 400 μM methional, 8 hours; control 7%
Experimental: (§1) The cells used were a BAF3 lymphocytic cell line, such as that described above. The BAF3-bcl2 cells corresponded to BAF3 cells transfected by the bcl2 gene. The BAF3-bO cells corresponded to BAF3 cells not transfected by the bcl2 gene. As indicated above, the BAF3-bO cells underwent apoptosis (more than 80% of the cells) in the absence of IL3 for 16 hours. On the other hand, the BAF3-bcl2 cells, which were transfected by the bcl2 gene, evidenced no sign of apoptosis in the absence of IL3. Accordingly, they constituted a good model for determining the apoptosis step blocked in these cells, and its potential correlation with the inhibition of malondialdehyde synthesis.
(§2) The BAF3-bO or BAF3-bcl2 cells were marked by adaptation of the method described in S. Wright et al, J. of Cell. Biochem., 48, 344-355 (1992), by incubating 2.5×10^5 cells/ml with 0.5 μCi [3H]-thymidine for 40 hours at 37° C. After two washings in a culture medium, 2.5×10^6 cells were cultured in the presence of methional. […] The aliquots of the culture medium (1 ml), of the supernatant (0.3 ml), and of the solubilized sediment (0.1 ml) were measured by quantitative analysis in the scintillation counter. The percentage of DNA fragments was calculated in the following manner: […]

BAF3-bcl2 cells = experiment: Induction of DNA fragmentation by methional in BAF3-bcl2 cells ([3H]-thymidine); type: cell-based, mouse
Experimental: as §1, §2

With `CSCCC=O` [methional, 3-methylthiopropanal] the IC50 (HeLa cells) was 100 µM, the “triggering of apoptosis (ladder of DNA fragments of 180 to 200 base pairs on gel)” value (BAF3 cells [1]) was “apoptosis was triggered” and the “quantity of DNA fragments (<3 kilobases)” value (BAF3 cells [2]; +IL3, 8 hours contact, methional 200-800 μM (concentration not given)) was 127 10^-9 g DNA/3 × 10^6 cells. The “increase in amount of DNA fragments compared with cells without IL3” value (BAF3 cells [2]; cells treated with IL3 and methional) was “comparable to the quantity found when the cells were placed in a medium not containing IL3”, the “Average Survival Time” value [3] was 27 days and the “percentage of DNA fragments (maximum)” value (BAF3-bO cells) was 26%. For the same compound, the “percentage of DNA fragments (maximum)” value (BAF3-bcl2 cells; 400 μM methional, 8 hours, control 3%) was 7% and the “elimination of the bcl2 inhibition of apoptosis” value (BAF3-bcl2 cells; methional 50-400 μM) was “did not permit eliminating the inhibition of apoptosis resulting from the bcl2 gene”.
